{"source": "patent US20150183834A1", "about": "(priority 2005, published 2015)", "key": {"human PBMC [1]": {"system": "human PBMC", "format": "cell-based"}, "human PBMC [2]": {"system": "human PBMC", "format": "cell-based", "remark": "listed apart in the source"}, "human PBMC [3]": {"system": "human PBMC", "format": "cell-based", "remark": "listed apart in the source"}, "human PBMC [4]": {"system": "human PBMC", "format": "cell-based", "remark": "listed apart in the source"}, "human PBMC [5]": {"system": "human PBMC", "format": "cell-based", "remark": "listed apart in the source"}, "Rhesus macaque PBMC [6]": {"system": "Rhesus macaque PBMC", "format": "cell-based, Rhesus (Macaca mulatta)"}, "Rhesus macaque PBMC [7]": {"system": "Rhesus macaque PBMC", "format": "cell-based, Rhesus (Macaca mulatta)", "remark": "listed apart in the source"}, "Rhesus macaque PBMC [8]": {"system": "Rhesus macaque PBMC", "format": "cell-based, Rhesus (Macaca mulatta)", "remark": "listed apart in the source"}, "[9]": {"system": "human peripheral blood mononuclear cells (PBMCs)", "format": "cell-based"}, "[10]": {"system": "purified human CD4+ and CD8+ T cells", "format": "cell-based"}, "protein kinase C": {"system": "protein kinase C", "conditions": "cited from earlier work"}}}
{"sequence": "ILNRKAIDFLLQRWGGT [ZEBOV peptide]", "values": [{"measurement": "fold decrease in the number of CD4+ T cells", "setting": "human PBMC [1]", "value": 7.4, "unit": "fold"}, {"measurement": "fold decrease in the number of CD8+ T cells", "setting": "human PBMC [1]", "value": 4.4, "unit": "fold"}, {"measurement": "fold reduction in the cell surface expression of CD4", "setting": "human PBMC [1]", "value": 3.5, "unit": "fold"}, {"measurement": "fold reduction in the cell surface expression of CD8", "setting": "human PBMC [1]", "value": 4.2, "unit": "fold"}, {"measurement": "mean fluorescence intensity value for CD4 expression ± SD", "setting": "human PBMC [1]", "value": "961±40"}, {"measurement": "mean fluorescence intensity value for CD8 expression ± SD", "setting": "human PBMC [1]", "value": "4,025±75"}, {"measurement": "number of CD4+ T cells", "setting": "human PBMC [1]", "value": "5.5±1.8 ×10^4"}, {"measurement": "number of CD8+ T cells", "setting": "human PBMC [1]", "value": "5.8±1.6 ×10^4"}, {"measurement": "percentage of cells positive for CD4 and CD8", "setting": "human PBMC [1]", "value": "significant decrease"}, {"measurement": "mean fluorescent intensity of CD25 expression on CD4+ and CD8+ T cells", "setting": "human PBMC [2]", "value": "decreased"}, {"measurement": "mean fluorescent intensity of CD69 expression on CD4+ and CD8+ T cells", "setting": "human PBMC [2]", "value": "decreased"}, {"measurement": "percentage of CD4+ T cells that are CD25+", "setting": "human PBMC [2]", "value": "65.9±11.8", "unit": "%"}, {"measurement": "percentage of CD4+ T cells that are CD69+", "setting": "human PBMC [2]", "value": "69.4±3.4", "unit": "%"}, {"measurement": "percentage of CD8+ T cells that are CD25+", "setting": "human PBMC [2]", "value": "43.9+9.0%"}, {"measurement": "percentage of CD8+ T cells that are CD69+", "setting": "human PBMC [2]", "value": "67.9±9.6", "unit": "%"}, {"measurement": "percentages of both CD69+CD4+ T cells and CD69+CD8+ T cells (in words)", "setting": "human PBMC [2]", "value": "significant reduction"}, {"measurement": "fold decrease in the percentage of cells in the S phase", "setting": "human PBMC [3]", "value": 3.5, "unit": "fold"}, {"measurement": "fold increase in the number of cells with hypodiploid DNA content", "setting": "human PBMC [3]", "value": 8.8, "unit": "fold"}, {"measurement": "percentage of BrdU labeled CD4+ cells", "setting": "human PBMC [3]", "value": "3.9±0.6", "unit": "%"}, {"measurement": "percentage of BrdU labeled CD8+ cells", "setting": "human PBMC [3]", "value": "4.8±1.8", "unit": "%"}, {"measurement": "percentage of cells in S phase", "setting": "human PBMC [3]", "value": "8.0±0.5", "unit": "%"}, {"measurement": "percentage of cells with hypodiploid DNA", "setting": "human PBMC [3]", "value": "22.0±2.2", "unit": "%"}, {"measurement": "fold increase in apoptotic CD4+ cells", "setting": "human PBMC [4]", "value": 3.6, "unit": "fold"}, {"measurement": "fold increase in apoptotic CD8+ cells", "setting": "human PBMC [4]", "value": 2.0, "unit": "fold"}, {"measurement": "percentage of Annexin V+ PI- CD4+", "setting": "human PBMC [4]", "value": "43.6±5.8", "unit": "%"}, {"measurement": "percentage of Annexin V+ PI− CD8+", "setting": "human PBMC [4]", "value": "29.7±3.7", "unit": "%"}, {"measurement": "IL-1β", "setting": "human PBMC [5]", "value": "dose-dependent reduction"}, {"measurement": "IL-4", "setting": "human PBMC [5]", "value": "trend toward decrease"}, {"measurement": "IL-6", "setting": "human PBMC [5]", "value": "no pattern"}, {"measurement": "IL-10", "setting": "human PBMC [5]", "value": "increase"}, {"measurement": "MCP-1", "setting": "human PBMC [5]", "value": "dose-dependent reduction"}, {"measurement": "MIP1-α", "setting": "human PBMC [5]", "value": "no effect"}, {"measurement": "TNF-α", "setting": "human PBMC [5]", "value": "dose-dependent reduction"}, {"measurement": "anti-CD3/CD28-induced production of IFN-γ", "setting": "human PBMC [5]", "value": "suppressed"}, {"measurement": "anti-CD3/CD28-induced production of IL-12p40", "setting": "human PBMC [5]", "value": "suppressed"}, {"measurement": "production of IL-2", "setting": "human PBMC [5]", "value": "suppressed"}, {"measurement": "T cell activation (in words)", "setting": "Rhesus macaque PBMC [6]", "value": "Decreased"}, {"measurement": "depletion of CD4+ T cells and CD8+ T cells (in words)", "setting": "Rhesus macaque PBMC [6]", "value": "Significant depletion"}, {"measurement": "apoptosis (in words)", "setting": "Rhesus macaque PBMC [7]", "value": "increased"}, {"measurement": "IFN-γ", "setting": "Rhesus macaque PBMC [8]", "value": "significant decrease"}, {"measurement": "IL1-β", "setting": "Rhesus macaque PBMC [8]", "value": "significant decrease"}, {"measurement": "IL-12p40", "setting": "Rhesus macaque PBMC [8]", "value": "significant decrease"}, {"measurement": "Levels of IL-8", "setting": "Rhesus macaque PBMC [8]", "value": "did not alter"}, {"measurement": "Levels of MIP1-α", "setting": "Rhesus macaque PBMC [8]", "value": "did not alter"}, {"measurement": "TNF-α", "setting": "Rhesus macaque PBMC [8]", "value": "significant decrease"}, {"measurement": "levels of IL-2", "setting": "[9]", "value": "decreased levels"}, {"measurement": "levels of IL-10", "setting": "[9]", "value": "increased levels"}, {"measurement": "levels of IL-12", "setting": "[9]", "value": "decreased levels"}, {"measurement": "activation and cell death in purified CD4+ or CD8+ T cell population", "setting": "[10]", "value": "sufficient to induce activation and cell death"}]}
{"sequence": "ILNRKAIDFLLQRWGGT [SEBOV peptide]", "values": [{"measurement": "CD69+CD4+ T cells (in words)", "setting": "human PBMC [2]", "value": "trend toward reduction"}, {"measurement": "percentage of CD69+ CD8+ T cells (in words)", "setting": "human PBMC [2]", "value": "significant reduction"}, {"measurement": "induction of apoptosis in CD4+ and CD8+ T cells (in words)", "setting": "human PBMC [4]", "value": "Effects were similar"}]}
{"sequence": "LLNRKAIDFLLQRWGGT [REBOV peptide]", "values": [{"measurement": "absolute T cell numbers (in words)", "setting": "human PBMC [1]", "value": "no significant depletion"}, {"measurement": "expression levels of CD4 and CD8 on PBMC (in words)", "setting": "human PBMC [1]", "value": "No decrease"}, {"measurement": "percentage of cells positive for CD4 and CD8", "setting": "human PBMC [1]", "value": "not"}, {"measurement": "CD69+CD4+ T cells (in words)", "setting": "human PBMC [2]", "value": "No effect"}, {"measurement": "IL-2R (CD25) expression in CD4+ and CD8+ T cells (in words)", "setting": "human PBMC [2]", "value": "No effect"}, {"measurement": "percentage of CD69+ CD8+ T cells (in words)", "setting": "human PBMC [2]", "value": "No effect"}, {"measurement": "percentages of both CD69+CD4+ T cells and CD69+CD8+ T cells (in words)", "setting": "human PBMC [2]", "value": "No effect"}, {"measurement": "BrdU labeling (in words)", "setting": "human PBMC [3]", "value": "No significant change"}, {"measurement": "cycling pattern (in words)", "setting": "human PBMC [3]", "value": "No change"}, {"measurement": "induction of apoptosis in CD4+ and CD8+ T cells (in words)", "setting": "human PBMC [4]", "value": "No significant induction"}, {"measurement": "cytokine production overall (in words)", "setting": "human PBMC [5]", "value": "No effects"}, {"measurement": "depletion of CD4+ T cells and CD8+ T cells (in words)", "setting": "Rhesus macaque PBMC [6]", "value": "Significant depletion"}, {"measurement": "fold decrease in the number of CD4+ T cells", "setting": "Rhesus macaque PBMC [6]", "value": 4.5, "unit": "fold"}, {"measurement": "fold decrease in the number of CD8+ T cells", "setting": "Rhesus macaque PBMC [6]", "value": 4.6, "unit": "fold"}, {"measurement": "mean fluorescent intensity of CD69 expression on CD4+ and CD8+ T cells", "setting": "Rhesus macaque PBMC [6]", "value": "decreased"}, {"measurement": "number of CD4+ T cells", "setting": "Rhesus macaque PBMC [6]", "value": "4.8±0.7 ×10^4"}, {"measurement": "number of CD8+ T cells", "setting": "Rhesus macaque PBMC [6]", "value": "2.3±0.4 ×10^4"}, {"measurement": "percentage of CD4+ rhesus T cells that are CD69+", "setting": "Rhesus macaque PBMC [6]", "value": "63.6±1.9", "unit": "%"}, {"measurement": "percentage of CD8+ rhesus T cells that are CD69+", "setting": "Rhesus macaque PBMC [6]", "value": "60.7±3.1", "unit": "%"}, {"measurement": "fold increase in apoptotic CD4+ cells", "setting": "Rhesus macaque PBMC [7]", "value": 3.1, "unit": "fold"}, {"measurement": "fold increase in apoptotic CD8+ cells", "setting": "Rhesus macaque PBMC [7]", "value": 2.6, "unit": "fold"}, {"measurement": "percentage of Annexin V+ P1− CD8+", "setting": "Rhesus macaque PBMC [7]", "value": "31.8±3.3", "unit": "%"}, {"measurement": "IFN-γ", "setting": "Rhesus macaque PBMC [8]", "value": "significant decrease"}, {"measurement": "IL1-β", "setting": "Rhesus macaque PBMC [8]", "value": "significant decrease"}, {"measurement": "IL-12p40", "setting": "Rhesus macaque PBMC [8]", "value": "significant decrease"}, {"measurement": "Levels of IL-8", "setting": "Rhesus macaque PBMC [8]", "value": "did not alter"}, {"measurement": "Levels of MIP1-α", "setting": "Rhesus macaque PBMC [8]", "value": "did not alter"}, {"measurement": "TNF-α", "setting": "Rhesus macaque PBMC [8]", "value": "significant decrease"}, {"measurement": "release of IL-2", "setting": "Rhesus macaque PBMC [8]", "value": "decreased release"}]}
{"sequence": "LQNRRGLDLLFLKEGGL [CKS-17, reference compound]", "values": [{"measurement": "levels of IL-2", "setting": "[9]", "value": "decreased levels"}, {"measurement": "levels of IL-10", "setting": "[9]", "value": "increased levels"}, {"measurement": "levels of IL-12", "setting": "[9]", "value": "decreased levels"}, {"measurement": "activity of protein kinase C", "setting": "protein kinase C", "value": "blocks the activity"}]}
{"sequence": "LINRHAIDFLLTRWGGT [MARV peptide]", "values": [{"measurement": "percentage of cells positive for CD4 and CD8", "setting": "human PBMC [1]", "value": "significant decrease"}, {"measurement": "CD69+CD4+ T cells (in words)", "setting": "human PBMC [2]", "value": "trend toward reduction"}, {"measurement": "percentage of CD69+ CD8+ T cells (in words)", "setting": "human PBMC [2]", "value": "significant reduction"}, {"measurement": "percentages of both CD69+CD4+ T cells and CD69+CD8+ T cells (in words)", "setting": "human PBMC [2]", "value": "significant reduction"}, {"measurement": "induction of apoptosis in CD4+ and CD8+ T cells (in words)", "setting": "human PBMC [4]", "value": "Effects were similar"}]}
